# Data from patent US9604932B2 (priority 2013, dated 2017).
# Key:
# [1] = Incubation of R-107 in mouse plasma, relative concentrations by HPLC; assay type: in vitro ADME; details: R-107 4 mM in mouse plasma, 37° C.
# Procedure: (§1) In an in vitro study, 2,2,5,5-tetramethyl-3-(nitrooxymethyl)pyrrolidin-1-yl acetate (R-107) was incubated in mouse or rat plasma at 37° C. at a concentration of 4 mM, and the relative concentrations of this compound as well as of its corresponding hydroxylamine, (1-hydroxy-2,2,5,5-tetramethylpyrrolidin-3-yl) methyl nitrate (R-105), and 3-nitratomethyl-2,2,5,5-tetramethylpyrrolidinyloxy (R-100), were measured by HPLC.
# [2] = Incubation of R-107 in rat plasma, relative concentrations by HPLC; assay type: in vitro ADME; details: R-107 4 mM in rat plasma, 37° C.
# Procedure: as §1
# [3] = system: mice exposed to a lethal dose of E. coli lipopolysaccharide (LPS); test: Murine model of sepsis (lethal dose of E. coli LPS); assay type: in vivo, Balb/c mice; details: protocol only; 0, 20, 40, or 80 mg/kg/day BID IP
# Procedure: In this study, Balb/c mice exposed to a lethal dose of E. coli lipopolysaccharide (LPS; 10 mg/kg IP) are treated with R-107 (0, 20, 40, or 80 mg/kg/day, BID IP), with the initial dose given 1 hour after LPS injection, and the mortality for the animal treated with LPS only (the control group) vs. that for the animals treated with the various doses of R-107 is compared.
# In a satellite study, tissues and sera are collected at 16 hours, i.e., 15 hours after the first administration and 3 hours after the second administration of R-107, for analysis, and the level of creatinine, aspartate transminase (AST), alanine transaminase (ALT), bilirubin, amylase, lipase, and alkaline phosphatase (ALP), associated with kidney, pancreas, and liver functioning are measured.
# [4] = system: Pseudomonas aeruginosa (PSA)-induced septic pneumonia; test: Sheep model of septic pneumonia; assay type: in vivo, Merino sheep; details: protocol only; total 80 mg/kg BID IV
# Source text: In this study, a model of sheep suffering from Pseudomonas aeruginosa (PSA)-induced septic pneumonia and consequent pulmonary dysfunction is used. Female Merino sheep are operatively instrumented for chronic study with Swan-Ganz®, i.e., pulmonary artery, and femoral artery catheters, and are randomly allocated to vehicle control or R-107 treatment group. Smoke inhalation injury (48 breaths of cotton smoke) is induced and 2.4×10^11 colony-forming units (CFU) of PSA are instilled in the lung via bronchoscope under general anesthesia. The animal in the treatment group are intravenously (IV) administered with a total of 80 mg/kg of R-107 BID. Ringer's lactate solution is titrated IV to maintain hematocrit (hct) at baseline±3%. Measurements are taken at baseline and every 3 hours during the 24 hours study period. Data are expressed as mean±SEM. Statistical analysis: two-way ANOVA and Bonferroni post hoc comparison. A p-value <0.05 is considered as statistically significant.
# [5] = system: peripheral hypertension (HTN); test: Minipig model of peripheral hypertension; assay type: in vivo, minipigs; details: protocol only; enterically-coated oral capsule
# Procedure: In order to test the efficacy of R-107 in peripheral hypertension (HTN), a series of 3 hemodynamic studies is carried out in conscious, instrumented, ambulatory, and telemetered minipigs (n=5) with HTN secondary to an endovascular-created, unilateral, renovascular stenosis. Minipigs are treated with R-107 administered as an enterically-coated oral capsule.
# In Series A, the pharmacokinetic profile and hemodynamic effect of a single administration of R-107 (3, 10, 20, 30 mg/kg) is correlated with a one-week washout period between successive dose levels. Animals are monitored for 24 hours to collect continuous hemodynamic data and intermittent plasma concentrations of R-107 and its metabolites (0, 0.25, 0.5, 0.75, 1, 2, 4, 6, 8, 12, 16, 20, and 24 hours). In Series B, the most promising 2 doses of R-107 from Series A are evaluated by carrying out a repeat-dose study of R-107 administered every 6 hours (q6h) for a period of 3 days. The hemodynamic effects of R-107 are correlated with plasma peak and trough concentrations of R-107 and its metabolites obtained q6h. In Series C, the emergence of tachyphylaxis to R-107 in a 2 week repeat-dose study (q6h) is evaluated utilizing the optimal dose determined in Series B, wherein hemodynamics are correlated with plasma pharmacokinetic determinations as in Series B.
# [6] = system: myocardial ischemia-reperfusion injury; test: Rat model of myocardial ischemia-reperfusion injury; assay type: in vivo, Sprague-Dawley rats; details: protocol only; 10, 30, 80 mg/kg IV
# Procedure: In order to test the efficacy of R-107 in a myocardial ischemia reperfusion injury, male aged Sprague-Dawley rats are dosed with R-107 (0, 10, 30, 80 mg/kg IV) 10 minutes prior to the end of a 30 minutes period of ischemia produced by occlusion of the left anterior descending (LAD) coronary artery. Cardiac function is monitored by a Millar catheter for the determination of heart rate (HR), systolic and diastolic blood pressure (BP), left ventricular (LV) systolic BP, LV end-diastolic BP (LVEDP), ±dP/dt, pressure-volume (PV) loop, and tau (τ). 3 hours post-ischemia, blood and myocardium are analyzed for morphologic, histochemical, and bioanalytical injury. The area of necrosis, as a % of area at risk (AAR), and the extent of the no-reflow zone are quantified.
# [7] = system: erectile dysfunction (ED); test: Rat model of erectile dysfunction; assay type: in vivo, Sprague-Dawley rats; details: protocol only; 80 mg/kg/day BID IV
compound,measurement,setting,value
"CC(=O)ON1C(C)(C)CC(CO[N+](=O)[O-])C1(C)C (centres unmarked) [R-107, 2,2,5,5-tetramethyl-3-(nitrooxymethyl)pyrrolidin-1-yl acetate]",Relative concentration of R-107,[1]; 0.1 hrs,326
same,Relative concentration of R-107,[1]; 1.5 hrs,284
same,Relative concentration of R-107,[1]; 20 hrs,0
same,Relative concentration of R-107,[2]; 0.1 hrs,246
same,Relative concentration of R-107,[2]; 1.5 hrs,18
same,Relative concentration of R-107,[2]; 20 hrs,0
same,Efficacy in murine model of sepsis,[3],Effective
same,Efficacy in sheep model of septic pneumonia,[4],Effective
same,Efficacy in minipig model of peripheral hypertension,[5],Effective
same,Efficacy in rat model of myocardial ischemia-reperfusion injury,[6],Effective
same,Efficacy in rat model of erectile dysfunction,[7],Effective
